Square brackets hold non-standard residues; d marks the D form. Peptide text beside a SMILES is read from it. Dmt = Cc1cc(O)cc(C)c1C[C@H](N)C(=O)O
Tests used:
human recombinant KOR [1] = target: T1, human recombinant KOR (Homo sapiens, UniProt P41145); assay: Calcium mobilization assay, CHO KOR cells with Gαqi5; type: cell-based; conditions: for KOR EC50 ± SEM (nM): calcium mobilization, CHO KOR Gαqi5, maximum tested concentration 10 µM, crc = concentration-response curve; for KOR α ± SEM: intrinsic activity: Emax of ligand / Emax of dynorphin A
T1 construct: expressed in transfected cells; host or cells: CHO cells (gift from Prof. Girolamo Calo', Ferrara University)

human recombinant DOR [2] = target: T2, human recombinant DOR (Homo sapiens, UniProt P41143); assay: Opioid receptor radioligand binding assay, DOR
T2 construct: expressed in transfected cells; host or cells: CHO cells (gift from Prof. Girolamo Calo', Ferrara University)

human recombinant MOR [3] = target: T3, human recombinant MOR (Homo sapiens, UniProt P35372); assay: Calcium mobilization assay, CHO MOR cells with Gαqi5; type: cell-based; conditions: for EC50: calcium mobilization, CHO MOR Gαqi5, maximum tested concentration 10 µM, read-out: MOR EC50 ± SEM
T3 construct: expressed in transfected cells; host or cells: CHO cells (gift from Prof. Girolamo Calo', Ferrara University)

human recombinant DOR [4] = target: T2, human recombinant DOR; assay: Calcium mobilization assay, CHO DOR cells with GαqG66Di5; type: cell-based
human recombinant KOR [5] = target: T1, human recombinant KOR; assay: Opioid receptor radioligand binding assay, KOR
NK2 (h) = target: T4, NK2 (h) (Homo sapiens, UniProt P21452); assay: NK2 radioligand binding assay (Eurofins)
T4 construct: host or cells: CHO cells
T4 sequence (P21452 1-398): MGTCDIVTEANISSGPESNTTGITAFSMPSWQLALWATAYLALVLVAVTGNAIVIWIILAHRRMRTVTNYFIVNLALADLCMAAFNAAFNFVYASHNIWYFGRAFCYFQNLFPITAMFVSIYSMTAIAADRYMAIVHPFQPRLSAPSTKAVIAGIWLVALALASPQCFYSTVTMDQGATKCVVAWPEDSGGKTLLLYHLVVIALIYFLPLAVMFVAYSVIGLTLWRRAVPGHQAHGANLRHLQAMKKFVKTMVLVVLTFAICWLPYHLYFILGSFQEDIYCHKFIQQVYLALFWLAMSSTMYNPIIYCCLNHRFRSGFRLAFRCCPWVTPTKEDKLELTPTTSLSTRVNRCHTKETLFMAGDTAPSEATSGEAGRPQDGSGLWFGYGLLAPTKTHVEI

NK3 (h) = target: T5, NK3 (h) (Homo sapiens, UniProt P29371); assay: NK3 radioligand binding assay (Eurofins); conditions: [3H]SR 142801 0.4 nM, human recombinant (CHO cells)
T5 construct: host or cells: CHO cells
T5 sequence (P29371 1-465): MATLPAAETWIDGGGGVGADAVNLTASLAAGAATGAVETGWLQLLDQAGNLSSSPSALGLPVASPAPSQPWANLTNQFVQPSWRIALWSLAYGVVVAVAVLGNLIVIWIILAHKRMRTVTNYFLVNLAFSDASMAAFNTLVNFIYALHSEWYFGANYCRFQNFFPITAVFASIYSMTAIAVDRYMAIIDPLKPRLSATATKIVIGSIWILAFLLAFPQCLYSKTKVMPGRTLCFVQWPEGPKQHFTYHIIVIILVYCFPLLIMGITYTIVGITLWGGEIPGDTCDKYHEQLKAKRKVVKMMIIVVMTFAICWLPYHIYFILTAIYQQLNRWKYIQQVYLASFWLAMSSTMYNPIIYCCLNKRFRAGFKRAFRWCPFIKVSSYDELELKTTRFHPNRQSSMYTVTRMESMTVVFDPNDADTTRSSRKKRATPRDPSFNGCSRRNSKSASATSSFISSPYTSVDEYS

human recombinant MOR [6] = target: T3, human recombinant MOR; assay: Opioid receptor radioligand binding assay, MOR

T3 sequence (P35372 whole entry): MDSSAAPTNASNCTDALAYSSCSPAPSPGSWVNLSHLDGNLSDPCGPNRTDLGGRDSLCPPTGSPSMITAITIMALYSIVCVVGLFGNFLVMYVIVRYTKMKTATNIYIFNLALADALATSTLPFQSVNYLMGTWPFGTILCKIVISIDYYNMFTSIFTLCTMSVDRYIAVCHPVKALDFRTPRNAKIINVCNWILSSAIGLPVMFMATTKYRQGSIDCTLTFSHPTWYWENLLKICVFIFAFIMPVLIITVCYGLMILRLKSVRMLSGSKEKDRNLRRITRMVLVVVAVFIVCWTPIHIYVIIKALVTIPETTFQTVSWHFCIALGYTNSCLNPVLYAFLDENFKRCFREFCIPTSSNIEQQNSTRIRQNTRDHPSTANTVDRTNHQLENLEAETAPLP
T1 sequence (P41145 whole entry): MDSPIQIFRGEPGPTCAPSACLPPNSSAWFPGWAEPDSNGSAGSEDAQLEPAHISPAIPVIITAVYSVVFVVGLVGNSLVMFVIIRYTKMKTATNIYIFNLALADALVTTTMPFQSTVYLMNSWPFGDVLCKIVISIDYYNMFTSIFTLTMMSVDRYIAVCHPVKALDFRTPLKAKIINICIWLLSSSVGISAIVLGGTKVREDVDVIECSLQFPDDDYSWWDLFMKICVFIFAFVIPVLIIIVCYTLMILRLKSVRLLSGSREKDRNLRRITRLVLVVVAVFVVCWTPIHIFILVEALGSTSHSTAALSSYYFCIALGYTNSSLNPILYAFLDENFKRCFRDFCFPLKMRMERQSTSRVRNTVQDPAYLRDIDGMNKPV
T2 sequence (P41143 whole entry): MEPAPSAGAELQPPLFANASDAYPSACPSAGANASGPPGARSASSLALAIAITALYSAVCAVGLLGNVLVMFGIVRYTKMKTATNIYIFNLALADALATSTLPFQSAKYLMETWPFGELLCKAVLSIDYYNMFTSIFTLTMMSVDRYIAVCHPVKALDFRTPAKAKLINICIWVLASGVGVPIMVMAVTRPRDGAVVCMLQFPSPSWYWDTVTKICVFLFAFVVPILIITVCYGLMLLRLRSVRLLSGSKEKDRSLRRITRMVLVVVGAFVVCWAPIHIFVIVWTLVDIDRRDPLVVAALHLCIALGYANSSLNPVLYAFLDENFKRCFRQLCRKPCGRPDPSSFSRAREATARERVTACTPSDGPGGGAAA

Compound | KOR EC50 ± SEM (nM) (human recombinant KOR [1]) | KOR α ± SEM (human recombinant KOR [1]) | Ki (human recombinant DOR [2]) | EC50 (human recombinant MOR [3]) | Ki (human recombinant KOR [5]) | further results
CC1(C)SSC(C)(C)[C@@H](NC(=O)[C@@H](N)Cc2ccc(O)cc2)C(=O)NCC(=O)N[C@@H](Cc2ccccc2)C(=O)N[C@H]1C(=O)O [DPDPE, reference compound] | inactive | inactive |  |  |  | 
Cc1cc(O)cc(C)c1C[C@H](N)C(=O)N[C@H](CCCNC(=N)N)C(=O)N[C@H]1Cc2ccccc2CN(CCC(N)=O)C1=O [KGOP01, H-Dmt-D-Arg-Aba-βAla-NH2, reference compound] | crc incomplete |  | 4.88 ± 0.11 nM | 0.54 ± 0.06 nM | 72.7 ± 4.32 nM | EC50 (human recombinant DOR [4]; calcium mobilization, CHO DOR GαqG66Di5, maximum tested concentration 10 µM, read-out: DOR EC50 ± SEM): 75.6 ± 13.1 nM
CC(=O)N[C@@H](CC(=O)O)C(=O)N[C@@H](Cc1ccc(O)cc1)C(=O)N[C@H](Cc1c[nH]c2ccccc12)C(=O)N[C@H](C(=O)N[C@H](Cc1c[nH]c2ccccc12)C(=O)N[C@H](Cc1c[nH]c2ccccc12)C(=O)N[C@@H](CCCCN)C(N)=O)C(C)C [SBL-OPNK-1] (Ac-DY[dW]V[dW][dW]K-NH2) |  |  |  |  |  | IC50 (NK2 (h); [125I]NKA 0.1 nM, human recombinant (CHO cells), 60 min RT, n.c. = less than 25% inhibitory binding at highest validated test concentrations, read-out: IC50 [nM] ± SEM, NK2 receptor): 33.6 ± 11.9 nM; Ki (NK2 (h); [125I]NKA 0.1 nM, human recombinant (CHO cells), Cheng Prusoff, n.c. = not calculated, read-out: Ki [nM] ± SEM, NK2 receptor): 18.3 ± 13 nM; lower NK2 binding affinity compared to the reference compound (NK2 (h); reference [Nle10]-NKA(4-10)): about 17 fold
CC[C@H](NC(=O)c1c(OCCNC(C)=O)c(-c2ccccc2)nc2ccccc12)c1ccccc1 [SBL-OPNK-3] |  |  |  |  |  | IC50 (NK3 (h); 120 min RT, read-out: IC50 [nM] ± SEM, NK3 receptor): 20.3 ± 7.2 nM; Ki (NK3 (h); Cheng Prusoff, read-out: Ki [nM] ± SEM, NK3 receptor): 11 ± 7.8 nM
Cc1cc(O)cc(C)c1C[C@H](N)C(=O)N[C@H](CCCNC(=N)N)C(=O)N[C@@H](Cc1ccccc1)C(=O)N[C@@H](CCCCN)C(=O)N[C@@H](CC(=O)O)C(=O)N[C@@H](Cc1ccc(O)cc1)C(=O)N[C@H](Cc1c[nH]c2ccccc12)C(=O)N[C@H](C(=O)N[C@H](Cc1c[nH]c2ccccc12)C(=O)N[C@H](Cc1c[nH]c2ccccc12)C(=O)N[C@@H](CCCCN)C(N)=O)C(C)C [SBL-OPNK-4] (H-[Dmt][dR]FKDY[dW]V[dW][dW]K-NH2) | crc incomplete | crc incomplete | 1250 nM | 815 ± 145 nM | 90.5 ± 5.69 nM | Ki [nM] ± SEM DOR (human recombinant DOR [2]; [3H][Ile5,6]deltorphin-2 displacement, CHO cell membranes, human recombinant receptor): did not bind efficiently; MOR α ± SEM (human recombinant MOR [3]; intrinsic activity: Emax of ligand / Emax of dermorphin): 0.74 ± 0.05; DOR EC50 ± SEM (nM) (human recombinant DOR [4]; calcium mobilization, CHO DOR GαqG66Di5, maximum tested concentration 10 µM): inactive; DOR α ± SEM (human recombinant DOR [4]; intrinsic activity: Emax of ligand / Emax of DPDPE): inactive; Ki (human recombinant MOR [6]): 1.02 ± 0.03 nM

Source: article PMC8434392, “Harnessing the Anti-Nociceptive Potential of NK2 and NK3 Ligands in the Design of New Multifunctional μ/δ-Opioid Agonist–Neurokinin Antagonist Peptidomimetics” (Molecules, 2021)
